In data set [1] the test system is HL-60/MX2 multidrug resistant. Description: Cell growth inhibition assay, resazurin (Example 11). The conditions noted are these: for EC50: Homo sapiens, HL60/MX2, HL-60/MX2, mean values of two independent experiments; for cytotoxic activity against both HL-60 and HL-60/MX2: in words; for Fold change: ratio of EC50 values (HL-60/MX2:HL-60). Type of data set: cell-based, human.

The test system of data set [2] is HL-60 human acute promyelocytic leukemia cells. The description is as above. The conditions noted are these: mean values of two independent experiments. It is filed as cell-based. Here is the method:
(§1) Human uterine sarcoma (MES-SA; CRL-1976), its multidrug resistant derivative (MES-SA/Dx5; CRL-1977), human acute promyelocytic leukemia cells (HL-60; CCL-240) and its multidrug resistant derivative (HL-60/MX2; CRL-2257) were purchased from ATCC and maintained in appropriate culture media. The cells were cultured in an incubator at 37° C. in 5% CO2 and 95% humidified air.
(§2) For cell growth inhibition assays, MES-SA and MES-SA/Dx5 cells were both seeded at 3×10^3 cells/well in 90 μl complete media into 96 well (Corning; 3904) black-walled, clear-bottom tissue culture plates and the plates were incubated overnight to allow cells to establish and enter log phase growth. HL-60 and HL-60/MX2 cells were both seeded at 5×10^4 cells/well in 90 μl complete media into 96 well plates on the day of compound addition. 20 mM stock solutions of the compounds were prepared in 100% DMSO and stored at −80° C. […] Ten μl volumes of the 10× serial dilutions were added to the test wells in triplicate and the plates returned to the incubator for 48 hours. The final concentration of DMSO was 0.25% in all samples.
(§3) Following 48 hours of drug exposure, 10 μl of 0.2 mg/ml resazurin (obtained from Sigma-Aldrich Chemical Co.) in Mg^2+, Ca^2+ free phosphate buffered saline was added to each well and the plates were returned to the incubator for 3-6 hours. […] Resazurin dye in medium without cells was used to determine the background, which was subtracted from the data for all experimental wells.
HL-60/MX2 is a multidrug resistant tumor cell line derived from the human promyelocytic leukemia cell line, HL-60 and expresses reduced topoisomerase II activity. The data presented in Table 20 summarize the growth inhibitory effects of NPI-2421, NPI-2463, NPI-2503, NPI-2504 and NPI-2506 against HL-60 and its multidrug resistant derivative HL-60/MX2. Mitoxantrone, the topoisomerase II targeting agent was included as a control.

A further data set relates to PC-3 prostate carcinoma. The description is as above. It is filed as cell-based. The conditions noted are these: Homo sapiens, 48 hours, mean ± SD where n ≧ 3, ** n = 1. Here is the method: (§4) The growth inhibitory activity of NPI-2421, NPI-2463, NPI-2503 and NPI-2504 were determined against selected human (colorectal adenocarcinoma, HT-29; breast adenocarcinoma, MDA-MB-231; non-small cell lung carcinoma, NCI-H292 and prostate carcinomas, PC-3 and DU 145) and mouse (melanoma, B16-F10) tumor cell lines.
(§5) HT-29 (HTB-38), MDA-MB-231 (HTB-26), NCI-H292 (CRL-1848), B16-F10 (CRL-6475), PC-3 (CRL-1435) and DU 145 (HTB-81) cells were all purchased from the ATCC. The cell lines were maintained in their respective ATCC recommended culture media and cultured in an incubator at 37° C. in 5% CO2 and 95% humidified air.
(§6) 20 mM stock solutions of compounds were prepared in 100% DMSO and stored at −80° C. 10× concentrated serial dilutions of the compounds were prepared in B16-F10 cell culture medium for final concentrations ranging from 20 μM to […]. Ten μl volumes of the 10× serial dilutions were added to the test wells in triplicate and the plates returned to the incubator for 48 hours. The final concentration of DMSO was 0.25% in all samples.
as §3

For data set [3], the system named is MDA-MB-231 breast adenocarcinoma. Described as above. Type of data set: cell-based. The conditions noted are these: Homo sapiens, 48 hours, mean ± SD where n ≧ 3. Here is the method: as §4, §5, §6, §3
Data set [4] has as its system NCI-H292 non-small cell lung carcinoma. The data set is described as above. The conditions noted are these: Homo sapiens, 48 hours, mean ± SD where n ≧ 3, ** n = 1. It is filed as cell-based. The method, then:
as §4, §5, §6, §3

The test system of data set [5] is DU 145 prostate carcinoma. The description is as above. It is filed as cell-based. The conditions noted are these: Homo sapiens, 48 hours. Here is the method: as §4, §5, §6, §3
For data set [6], the system named is HT-29 colorectal adenocarcinoma. Described as above. It is filed as cell-based. The conditions noted are these: Homo sapiens, 48 hours, mean ± SD where n ≧ 3. Here is the method: as §4, §5, §6, §3
In the next data set the test system is B16-F10 melanoma. Described as above. It is filed as cell-based. The conditions noted are these: Mus musculus, 48 hours, mean ± SD where n ≧ 3. Here is the method:
as §4, §5, §6, §3

The subject of the next data set is HT-29 cells. In words: Additional cytotoxicity assays, resazurin (Table 3.1). It is filed as cell-based, human. The conditions noted are these: Table 3.1. The procedure, abridged:
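Cells exposed 48 hours to compounds at final concentrations 2.0×10^−5 M to 2.0×10^−10 M, in triplicate. Viability then read as resazurin fluorescence after 3-4 hours with dye; cell-free dye background subtracted.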

Data set [7] relates to MES-SA/Dx5 multidrug resistant. Description: Cell growth inhibition assay, resazurin (Example 11). As to conditions: for EC50: Homo sapiens, MES-SA/Dx5, mean ± standard deviation of three independent experiments; for cytotoxic activity against both MES-SA and MES-SA/Dx5: in words; for Fold change: ratio of EC50 values (MES-SA/Dx5:MES-SA). Type of data set: cell-based, human. Here is the method: as §1, §2, §3
(§7) The multidrug resistant MES-SA/Dx5 tumor cell line was derived from the human uterine sarcoma MES-SA tumor cell line and expresses elevated P-Glycoprotein (P-gp), an ATP dependent efflux pump. The data in Table 19 summarize the growth inhibitory effects of NPI-2421, NPI-2463, NPI-2503, NPI-2504 and NPI-2506 against MES-SA and its multidrug resistant derivative MES-SA/Dx5. Paclitaxel, a known substrate of the P-gp pump was included as a control.

Data set [8] has as its system MES-SA human uterine sarcoma. The description is as above. Type of data set: cell-based. The conditions noted are these: mean ± standard deviation of three independent experiments. Here is the method:
as §1, §2, §3, §7

In the next data set the test system is HuVECs. The description is as above. Type of data set: cell-based, human. The conditions noted are these: for EC50: Homo sapiens, HuVEC, 48 hours, mean values of two independent experiments; for cytotoxicity against HuVECs: in words. The method, then: The growth inhibitory activity of NPI-2421 and NPI-2463 were determined against human umbilical […] endothelial cells, HuVECs.
HuVECs (Cambrex Biosciences; CC2519A) were maintained in EGM-2 medium at 37° C. in 5% CO2 and 95% humidified air.
For cell growth inhibition assays, HuVECs were seeded at 1×10^3 cells/well in 90 μl complete media into a Corning 3904 black-walled, clear-bottom tissue culture plates and the plates were incubated overnight to allow cells to establish and enter log phase growth. 20 mM stock solutions of compounds were prepared in 100% DMSO and stored at −80° C. […] Ten μl volumes of the 10× serial dilutions were added to the test wells in triplicate and the plates returned to the incubator for 48 hours. The final concentration of DMSO was 0.25% in all samples.
as §3

Data set [9] deals with HT-29 human colorectal carcinoma cells. In words: Cell growth inhibition assay, resazurin (Table 3.2). As to conditions: Table 3.2, HT-29 cells, read-out: EC50 (M) Mean. It is filed as cell-based. The method, boiled down: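 HT-29 cells seeded at 5×10^3/well overnight, then exposed in triplicate to compounds at final 20 μM to […] (0.25% DMSO) for 48 h at 37° C. Viability read by resazurin reduction after 3-4 h further incubation, with cell-free dye background subtracted.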
For orientation: The colour change of resazurin is a common sign of viable cells or microbes.

The subject of data set [10] is MDA-231 human breast tumor. In words: MDA-231 Human Breast Tumor Orthotopic Xenograft Model (mammary fat pad). Type of data set: in vivo, nude mice. The conditions noted are these: Breast MDA-231 (1 study); Paclitaxel qdx5 alone. The method, then: (§8) The animals used were: female nude mice (nu/ni) (MDA-231 study) or B6D2F1 (B16-F10 studies) mice between 5 and 6 weeks of age (˜20 g, Harlan); group size was 10 mice per group unless otherwise indicated.
(§9) The cell lines used were: MDA-MB-231 human breast tumor and B16-F10 murine melanoma cells.
(§10) NPI compounds were administered as monotherapy via the intraperitoneal route at the doses indicated for the individual study; for the combination studies the selected reference chemotherapy agents were injected 15-30 min prior to the NPI compound.
Female nude mice were injected in the mammary fat pad with 2×10^6 MDA-231 cells harvested from in vitro cell culture. When the tumor size reached 5 mm×5 mm (about 14-28 days) the animals were matched into treatment and control groups. The study then proceeded as described for the HT-29 model, using paclitaxel as the standard chemotherapy agent.
In this model unless otherwise noted for the individual study, the test compounds were administered via the intraperitoneal route on Days 1, 4, 8, 11 and 15 (q3dx5); paclitaxel was administered via the intraperitoneal route on Days 1-5 (qdx5).
This model involves the placement of the human tumor tissue into the mouse mammary fat pad, a surrogate of the natural environment. In this manner the possibility of a positive effect due to a specific action on the subcutaneous vascular bed is avoided.

The subject of data set [11] is B16-F10 murine melanoma cells. Description: B16-F10 Metastatic Murine Melanoma Model. Type of data set: in vivo, B6D2F1 mice. The conditions noted are these: monotherapy, lung surface metastases day 16. Here is the method: as §8, §9, §10
Mice received B16-F10 cells (prepared from an in vitro cell culture of B16-F10 cells) by the iv route on Day 0. On Day 1 mice were randomized into treatment and control groups and treatment commenced. Mice were weighed twice weekly, starting on Day 1. All mice are sacrificed on Day 16, the lungs removed, weighed and the surface colonies counted. Results are expressed as mean colonies of treated mice/mean colonies of control mice (T/C)×100%). The metastasis growth inhibition (MGI) is this number subtracted from 100%. Paclitaxel was the standard chemotherapy agent used in this study.
In this model unless otherwise noted for the individual study, the test compounds were administered via the intraperitoneal route on Days 1-5 (qdx5); paclitaxel was administered intravenously on Days 1-5(qdx5).

The values that follow come from patent US8129527B2, “Analogs of dehydrophenylahistins and their therapeutic use” (Nereus Pharmacuticals, Inc., priority 2006, dated 2012).

The EC50 is the concentration giving half of the maximal effect. For the compound `CC(C)(C)c1ocnc1/C=c1\[nH]c(=O)/c(=C/c2ccccc2)[nH]c1=O` [Compound 2421, tBu-delta-PLH-oxazole], the 50% effective concentration (EC50) was 14 nM in data set [1]; 23 nM in data set [2]; over 2000 nM in the data set on PC-3 prostate carcinoma; 20 ± 6 nM in [3]; 41 nM in [4]; 25 nM in [5]. The EC50 in [6] was 21 ± 9 nM; with B16-F10 melanoma it was 19 nM; with HT-29 cells (Homo sapiens, HT-29, read-out: EC50 (M) Mean), 2.22e-08 M; in [7] it was 17 ± 4 nM; in data set [8] it was 12 ± 3 nM; in the data set with HuVECs, 12 nM. Also, in data set [1], the “cytotoxic activity against both HL-60 and HL-60/MX2” value is listed as “retained cytotoxic activity”. The Fold change in data set [1] turned out to be 0.6; in [7], 1.4. For the same compound, in the data set with HT-29 cells, the “% cytotox Mean” value came to 88%. For the same compound, the “cytotoxic activity against both MES-SA and MES-SA/Dx5” value in data set [7] is “retained equivalent cytotoxic activity”. In addition, the “cytotoxicity against HuVECs” value with HuVECs is “cytotoxic against HuVECs”.

For the compound `CC(C)(C)c1ocnc1/C=c1\[nH]c(=O)/c(=C/c2cccc(F)c2)[nH]c1=O` [Compound 2463, tBu-Oxadelta-PLH-m-F], the EC50 in [1] was found to be 14 nM; in data set [2], 26 nM; in the data set with PC-3 prostate carcinoma, 13 ± 5 nM; in data set [3], 25 ± 9 nM; in [4], 24 ± 11 nM; in data set [5], 32 nM. Besides, the EC50 in data set [6] stood at 16 ± 3 nM; in the data set with B16-F10 melanoma it was 14 ± 5 nM; in data set [7] it was 14 ± 3 nM; in data set [8] it was 12 ± 4 nM; in [9], 1.71e-08 M; with HuVECs it was 10 nM. Moreover, in data set [1], the “cytotoxic activity against both HL-60 and HL-60/MX2” value is given as “retained cytotoxic activity”. The results for the Fold change in [1] and in data set [7] were 0.5 and 1.2, respectively. Also, the “cytotoxic activity against both MES-SA and MES-SA/Dx5” value in [7] was “retained equivalent cytotoxic activity”. Moreover, in the data set on HuVECs, the “cytotoxicity against HuVECs” value was “cytotoxic against HuVECs”.

As to `CC(=O)O[C@H]1C(=O)[C@@]2(C)[C@H]([C@H](OC(=O)c3ccccc3)[C@]3(O)C[C@H](OC(=O)[C@H](O)[C@@H](NC(=O)c4ccccc4)c4ccccc4)C(C)=C1C3(C)C)[C@]1(OC(C)=O)CO[C@@H]1C[C@@H]2O` [Paclitaxel, reference compound], in data set [10], the “Tumor Growth Inhibition (%) Reference Agent” value is listed as 53% and the “Tumor Regression (#/total) Reference Agent” value is 1/10. Further, in data set [7], it took 2000 ± 150 nM to reach a half-maximal effect (EC50) and the Fold change stood at 417. Moreover, the “less active against the resistant MES-SA/Dx5 cells” value in [7] (vs MES-SA) is given as about 400 times. A half-maximal effect in data set [8] (EC50) was put at 4.8 ± 2.1 nM. In addition, in data set [11], the “MGI (metastasis growth inhibition)” value was 35.0%.
